# In article PMC7251097, “Aspartate/asparagine-β-hydroxylase: a high-throughput mass spectrometric assay for discovery of small molecule inhibitors” (Scientific Reports, 2020):
# Entries after “also recorded” stand apart in the source; their conditions may differ. Where a name gives a salt, the structure may show the parent alone. Read-outs that look alike come from different tables or passages of the source.
# Biological target: T1, His6-AspH315–758 (human aspartate/asparagine-β-hydroxylase, AspH) (Homo sapiens, UniProt Q12797)
# T1 construct: N-Terminally His6-tagged human AspH315–758 (His6-AspH315–758) was produced in E. coli BL21 (DE3) cells; made in house; host or cells: E. coli BL21 (DE3), pET-28a(+) vector
# T1 sequence (Q12797 315-758): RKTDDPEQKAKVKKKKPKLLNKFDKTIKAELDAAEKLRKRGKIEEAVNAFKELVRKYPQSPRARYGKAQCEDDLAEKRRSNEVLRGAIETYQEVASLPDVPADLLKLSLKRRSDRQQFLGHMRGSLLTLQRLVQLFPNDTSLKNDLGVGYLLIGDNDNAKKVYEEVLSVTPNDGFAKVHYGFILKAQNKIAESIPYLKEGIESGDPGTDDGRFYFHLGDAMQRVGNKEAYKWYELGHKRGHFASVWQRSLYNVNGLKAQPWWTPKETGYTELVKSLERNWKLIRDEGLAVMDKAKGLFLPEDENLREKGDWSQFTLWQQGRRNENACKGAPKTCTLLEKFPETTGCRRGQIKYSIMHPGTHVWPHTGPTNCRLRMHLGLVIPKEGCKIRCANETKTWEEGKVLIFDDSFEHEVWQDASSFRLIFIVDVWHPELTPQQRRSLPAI
# Assay: SPE-MS AspH inhibition assay (LOPAC screen at fixed 20 μM and IC50 dose-response), hydroxylation of cyclic peptide hFX-CP101–119
# Assay type: biochemical
# Conditions: for Plate 5 (% inhibition) / Plate 5 (% conversion): plate 5 (Pfitzer), test compounds at fixed 20 μM; for Plate 5 (% conversion): mean conversion DMSO 32.88
# [1] = LOPAC compound at fixed 20 uM, plate 1, normalised to DMSO and 2,4-PDCA controls
# [2] = LOPAC compound at fixed 20 uM, substrate conversion, plate 1
# [3] = LOPAC compound at 20uM, plate 3, conversion of substrate peptide
# [4] = LOPAC Plate 4, compound at 20 uM
# [5] = LOPAC Plate 4, compound at 20 uM, substrate conversion
# [6] = LOPAC compound at 20uM, plate 2, conversion of substrate peptide
# [7] = LOPAC compound at 20uM, plate 2, normalised to DMSO and 2,4-PDCA controls
# [8] = LOPAC Plate 4, compound at 20 uM, read-out: % inhibition
# [9] = LOPAC compound at 20uM, plate 2, normalised to DMSO and 2,4-PDCA controls, read-out: Plate 2 (% inhibition)
compound,measurement,setting,value
CC[C@H]1CN2CCc3cc(OC)c(OC)cc3[C@@H]2C[C@@H]1C[C@H]1NCCc2cc(OC)c(OC)cc21 [Emetine dihydrochloride hydrate],Plate 2 (% conversion),,37.46%
same,inhibition at 20 µM,read-out: Plate 2 (% inhibition),-4.49%
C=CCn1c(=O)c2c(nc(-c3ccc(S(=O)(=O)O)cc3)n2C)n(C)c1=O,Plate 1 (% inhibition),[1],-6.98%
same,Plate 1 (% conversion),[2],38.22%
CCS(=O)(=O)Nc1cccc(C(=C2CCCCC2)c2cnc[nH]2)c1 [A-315456],Plate 1 (% conversion),,40.98%
same,Plate 1 (% inhibition),,-15.20%
CCCCc1oc2ccccc2c1C(=O)c1cc(I)c(OCCN(CC)CC)c(I)c1 [Amiodarone hydrochloride],Plate 1 (% inhibition),[1],32.10%
CN1CC[C@]2(CCN3CCc4c(oc5ccccc45)[C@@H]3C2)N(C)C1=O.Cl [MK-912],Plate 3 (% conversion),[3],38.39%
COC(=O)C1=CCCN(C)C1 [Arecoline hydrobromide],Plate 1 (% conversion),,37.04%
same,Plate 1 (% inhibition),,-3.47%
CNCC(O)c1ccc(O)cc1 (racemic) [(±)-Synephrine],% conversion,,25.88%
N[C@@H](C(=O)N[C@@H]1C(=O)N2C(C(=O)O)=C(Cl)CS[C@H]12)c1ccccc1 [Cefaclor],Plate 1 (% inhibition),[1],23.98%
same,Plate 1 (% conversion),[2],27.82%
N#CC(=C(/N)Sc1ccccc1N)/C(C#N)=C(/N)Sc1ccccc1N [U0126],% inhibition,[4],-0.28%
same,% conversion,[5],36.57%
C[C@@H]1CCN(C(=O)N2CCCC2)C[C@@H]1N(C)c1ncnc2[nH]ccc12 [PF-956980],Plate 5 (% inhibition),,16.28%
same,Plate 5 (% conversion),,30.77%
Cl.NC[C@@H]1O[C@H](C23CC4CC(CC(C4)C2)C3)Cc2c1ccc(O)c2O [A-77636 hydrochloride],Plate 1 (% conversion),,15.05%
same,Plate 1 (% inhibition),,62.00%
COc1cc(C(O)C(=O)O)ccc1O (racemic) [(±)-Vanillylmandelic acid],Plate 2 (% conversion),[6],32.67%
same,Plate 2 (% inhibition),[7],9.80%
CCN(CC)CCNC(=O)c1cc(S(C)(=O)=O)ccc1OC [Tiapride hydrochloride],% conversion,[5],37.21%
same,inhibition at 20 µM,[8],-2.16%
CNCCCN1c2ccccc2CCc2ccccc21 [Desipramine hydrochloride],Plate 2 (% conversion),[6],40.94%
same,inhibition at 20 µM,[9],-14.9%
Cc1cccc(C)c1N=C1NCCCS1 [Xylazine hydrochloride],% conversion,,33.11%
C[C@]12C[C@H](O)[C@H]3[C@@H](CCC4=CC(=O)CC[C@@]43C)[C@@H]1CC[C@@H]2C(=O)CO [Corticosterone],Plate 1 (% inhibition),[1],-6.36%
same,Plate 1 (% conversion),[2],38.01%
O=c1c2ccccc2nc2n1CCc1c-2[nH]c2ccccc12 [Rutaecarpine],% conversion,[5],29.23%
CC(C)(C)C(=O)Oc1ccc(S(=O)(=O)Nc2ccccc2C(=O)NCC(=O)[O-])cc1.[Na+] [Sivelestat sodium salt hydrate],Plate 3 (% conversion),[3],36.62%
C=C(C)[C@H]1CC=C(C(=O)O)CC1 [(-)-Perillic acid],% conversion,[5],29.82%
O=C(O)/C=C/C(=O)O.O=C(O)/C=C/C(=O)O.O=C(O)/C=C/C(=O)O.O=C1CCCN1CC#CCN1CCCC1.O=C1CCCN1CC#CCN1CCCC1 [Oxotremorine sesquifumarate salt],Plate 3 (% conversion),,14.90%
CN(C)C/C=C(/c1ccc(Br)cc1)c1cccnc1 [Zimelidine dihydrochloride],% conversion,[5],37.91%
CN1CCN(CC(=O)N2c3ccccc3C(=O)Nc3cccnc32)CC1 [Pirenzepine dihydrochloride],% conversion,[5],38.08%
same,inhibition at 20 µM,[8],-4.73%
CN(C)CCC=C1c2ccccc2CCc2ccccc21 [Amitriptyline hydrochloride],Plate 1 (% conversion),,38.67%
same,Plate 1 (% inhibition),[1],-8.33%
Cc1cc([C@@H]2CCCN2C)on1.Cl [ABT-418 hydrochloride],Plate 1 (% conversion),,35.68%
same,Plate 1 (% inhibition),,0.56%
Clc1ccc2c(c1)N=C(N1CCNCC1)c1ccccc1N2 [N-Desmethylclozapine],inhibition at 20 µM,[9],-3.91%
CNC(=O)c1ccccc1Sc1ccc2c(/C=C/c3ccccn3)n[nH]c2c1 [Axitinib],Plate 5 (% inhibition),,-7.77%
same,Plate 5 (% conversion),,38.96%
"Br.C=CCN1CCc2cc(O)c(O)cc2C(c2ccccc2)C1 (racemic) [(±)-SKF 38393, N-allyl-, hydrobromide]",% conversion,,11.46%
same,% inhibition,20 µM,73.28%
COc1ccc(OCC2c3cc(OC)c(OC)cc3CCN2C(=O)c2cccc(Cl)c2)cc1 (stereo not shown) [CIQ],% conversion,[5],36.09%
CC(=O)O[C@]1(C(C)=O)CC[C@H]2[C@@H]3C=C(Cl)C4=CC(=O)[C@@H]5C[C@@H]5[C@]4(C)[C@H]3CC[C@@]21C [Cyproterone acetate],Plate 1 (% inhibition),[1],-9.70%
same,Plate 1 (% conversion),[2],39.13%
"[Ca+2].[Cl-].[Cl-] [Ca(II), CaCl2, reference compound]","IC50 metal ion, AspH [μM]","50 nM AspH, 2.0 μM Fe(II), Zn(OAc)2, NiSO4, CoCl2, MnCl2, CaCl2 as metal sources, n = 2, mean ± SD",do not show any effect; also recorded: does not perturb AspH activity; also recorded: inactive
Clc1ccc2c(c1)C(N1CCNCC1)=Nc1ccccc1O2 [Amoxapine],Plate 1 (% inhibition),[1],-8.96%
same,Plate 1 (% conversion),[2],38.88%
CC(=O)c1ccc(S(=O)(=O)NC(=O)NC2CCCCC2)cc1 [Acetohexamide],Plate 1 (% inhibition),[1],-6.36%
same,Plate 1 (% conversion),[2],38.01%
CN(C)CCCN1c2ccccc2Sc2ccc(C(F)(F)F)cc21 [Triflupromazine hydrochloride],inhibition at 20 µM,,-23.1%
C[C@@H](N)Cc1cnc[nH]1.Cl.Cl,Plate 2 (% conversion),,36.76%
same,Plate 2 (% inhibition),20 µM,-2.41%
Rhodblock 6,Plate 1 (% inhibition),[1],-3.70%
same,Plate 1 (% conversion),[2],37.11%
"Nc1ccc2c3c(cccc13)C(=O)NC2=O [4-Amino-1,8-naphthalimide]",Plate 1 (% inhibition),[1],-1.00%
same,Plate 1 (% conversion),[2],36.21%
O=C(O)/C=C\C(=O)O.O=C(O)/C=C\C(=O)O.c1cc(CN2CCCCC2)cc(OCCCNc2nc3ccccc3s2)c1 [SKF 95282 dimaleate],% conversion,,24.14%
CC(C)COC(=O)OCN1C(=O)CN(CCN2CC(=O)N(COC(=O)OCC(C)C)C(=O)C2)CC1=O [Sobuzoxane],% conversion,,68.13%
O=C(CCCN1CCC2(CC1)C(=O)NCN2c1ccccc1)c1ccc(F)cc1 [Spiperone hydrochloride],% conversion,[5],26.03%
same,inhibition at 20 µM,[8],30.6%
CC(=O)NNC(=O)N1Cc2ccccc2Oc2ccc(Cl)cc21 [SC 19220],% conversion,[5],29.06%
COc1cccc(NC(=O)/C=C/c2ccc(Cl)cc2)c1 [SB-366791],% inhibition,[4],0.24%
same,% conversion,[5],36.39%
COc1ccc(C(=O)N2CCCC2=O)cc1 [Aniracetam],Plate 1 (% conversion),,23.49%
same,Plate 1 (% inhibition),,36.86%
Cl.Cl.Fc1ccc(C(OCCN2CCN(CCCc3ccccc3)CC2)c2ccc(F)cc2)cc1 [GBR-12909 dihydrochloride],Plate 2 (% conversion),[6],51.05%
same,Plate 2 (% inhibition),[7],-45.09%
CC(=O)c1ccc2c(c1)N(CCCN(C)C)c1ccccc1S2 [Acepromazine maleate],% conversion,[5],29.56%
N.S=C(S)N1CCCC1 [Ammonium pyrrolidinedithiocarbamate],% conversion,[5],37.86%
"N#C/C(=C\c1ccc(O)c(O)c1)C(N)=S [Tyrphostin 47, reference compound]",% conversion,,2.14%
same,inhibition at 20 µM,,101%
same,inhibition at 20 µM,read-out: Inhibition at 20 µM [%],101%
CC(C)C(N)C(=O)OCC(CO)OCn1cnc2c(=O)[nH]c(N)nc21.Cl.O (stereo not shown) [Valganciclovir hydrochloride hydrate],Plate 2 (% conversion),[6],38.77%
same,Plate 2 (% inhibition),[7],-8.41%
NS(=O)(=O)c1nn2cc(-c3ccccc3)nc2s1 [AEG 3482],Plate 3 (% conversion),,35.73%
CCn1cc(C(=O)[O-])c(=O)c2ccc(C)nc21.[Na+] [Nalidixic acid sodium],Plate 3 (% conversion),[3],26.41%
